This is an account of results in patent EP0399653B1, “Anticonvulsant triazolo[4,5-c]pyridine derivatives” (THE WELLCOME FOUNDATION LIMITED, priority 1989, dated 1990).

Structures can show the parent of a compound that is named as a salt. Where two headings read alike, the source gives them in different places.

The experiment can be described thus: standard maximal electroshock test (MES), anticonvulsant activity. The class given is in vivo. The following applies: tested as HCl salt. How it is done: The anticonvulsant activity of certain compounds of the present invention were determined by a standard maximal electroshock test (MES); that described by L.A.Woodbury and V.D.Davenport, Arch. Int.Pharmacodyn, 1952 92 97.

The mark [1] stands for this setting: ip, I.P administration, read-out: ED50.I.P.
[2] abbreviates: po, P.O administration, read-out: ED50.P.O.

The ED50 is the midpoint of the dose-response relation. On to `CNc1nccc2c1nnn2Cc1ccccc1F` [Example 1, 1-(2-fluorobenzyl)-4-(methylamino)-1H-1,2,3-triazolo[4,5-c]pyridine], for which the ED50 was 4.5 mg/kg under setting [1] and 4.4 mg/kg under setting [2].
As to `Fc1ccccc1Cn1nnc2c(NC3CC3)nccc21` [Example 2, 4-(cyclopropylamino)-1-(2-fluorobenzyl)-1H-1,2,3-triazolo [4,5-c] pyridine], the ED50 worked out at 4.8 mg/kg under setting [1] and 6.3 mg/kg under setting [2].
The matching figures for `CCNc1nccc2c1nnn2Cc1ccccc1F` [Example 3, 4-(ethylamino)-1-(2-fluorobenzyl)-1H-1,2,3-triazolo[4,5-c] pyridine]: 8.3 mg/kg and 10.3 mg/kg.
As for `CN(C)c1nccc2c1nnn2Cc1ccccc1F` [Example 4, 4-(dimethylamino)-1-(2-fluorobenzyl)-1H-1,2,3-triazolo [4,5-c]pyridine], the median effective dose (ED50) under setting [1] came out at 6.3 mg/kg and the ED50 under setting [2] was 6.6 mg/kg.
Consider `CNc1nccc2c1nnn2Cc1c(F)cccc1F` [Example 5, 1-(2,6-difluorobenzyl)-4-(methylamino)-1H-1,2,3-triazolo [4,5-c] pyridine], for which the ED50 was determined as 7.8 mg/kg under setting [1] and 5.3 mg/kg under setting [2].
Turning to `Nc1nccc2c1nnn2Cc1c(F)cccc1F` [Example 6, 4-amino-1-(2,6,-difluorobenzyl)-1H-1,2,3-triazolo [4,5-c]pyridine hydrochloride], the ED50 runs as follows: under setting [1], 6.3 mg/kg; under setting [2], 3.7 mg/kg.
As for `CNc1nccc2c1nnn2Cc1cc(F)ccc1F` [Example 7, 1-(2,5-difluorobenzyl)-4-(methylamino)-1H-1,2,3-triazolo [4,5-c]pyridine], the median effective dose (ED50) runs as follows: under setting [1], 5 mg/kg; under setting [2], 4.3 mg/kg.
The matching figures for `CNc1nccc2c1nnn2Cc1ccccc1` [Example 8, 1-benzyl-4-(methylamino)-1H-1,2,3-triazolo[4.5-c]pyridine]: 7.8 mg/kg and 8.9 mg/kg.
For `Fc1cccc(F)c1Cn1nnc2c(NC3CC3)nccc21` [Example 10, 4-(cyclopropylamino)-1-(2,6-difluorobenzyl)-1H-1,2,3-triazolo[4,5-c]pyridine], in that order: 4.1 mg/kg and 8.1 mg/kg.
